System: patients with advanced solid tumors (SCLC, CRC, mCRPC, NUT carcinoma)
Assay: phase Ib expansion: DLTs, adverse events, exposure
[1] = phase Ib, NUT carcinoma total n = 42

Excerpt: The primary endpoint for the phase Ib expansion was the number of patients who experienced DLTs during the study treatment period.
For fatigue at baseline, there had to be an increase of two or more grades.

CNc1nc(-c2nc3ccc(N4CCN(C)CC4)cc3n2Cc2ccccc2)cn2c(C)nnc12 [BI 894999]
Vomiting, treatment-related AE, any grade [1]: 0 n (%) | Vomiting, treatment-related AE, grade ≥3 [1]: 0 n (%) | Weight decrease, treatment-related AE, any grade [1]: 0 n (%) | Weight decrease, treatment-related AE, grade ≥3 [1]: 0 n (%) | ALT increase, treatment-related AE, any grade (phase Ib, SCLC n = 12): 1 (8.3) n (%) | ALT increase, treatment-related AE, grade ≥3 (phase Ib, SCLC n = 12): 0 n (%) | Anemia, treatment-related AE, any grade (phase Ib, SCLC n = 12): 0 n (%) | Anemia, treatment-related AE, grade ≥3 (phase Ib, SCLC n = 12): 0 n (%) | Decreased appetite, treatment-related AE, any grade (phase Ib, SCLC n = 12): 2 (16.7) n (%) | Decreased appetite, treatment-related AE, grade ≥3 (phase Ib, SCLC n = 12): 1 (8.3) n (%) | Decreased platelet count, treatment-related AE, any grade (phase Ib, SCLC n = 12): 1 (8.3) n (%) | Decreased platelet count, treatment-related AE, grade ≥3 (phase Ib, SCLC n = 12): 0 n (%) | Diarrhea, treatment-related AE, any grade (phase Ib, SCLC n = 12): 3 (25.0) n (%) | Diarrhea, treatment-related AE, grade ≥3 (phase Ib, SCLC n = 12): 0 n (%) | Dysgeusia, treatment-related AE, any grade (phase Ib, SCLC n = 12): 3 (25.0) n (%) | Dysgeusia, treatment-related AE, grade ≥3 (phase Ib, SCLC n = 12): 0 n (%) | Epistaxis, treatment-related AE, any grade (phase Ib, SCLC n = 12): 0 n (%) | Epistaxis, treatment-related AE, grade ≥3 (phase Ib, SCLC n = 12): 0 n (%) | Fatigue, treatment-related AE, any grade (phase Ib, SCLC n = 12): 4 (33.3) n (%) | Fatigue, treatment-related AE, grade ≥3 (phase Ib, SCLC n = 12): 1 (8.3) n (%) | Nausea, treatment-related AE, any grade (phase Ib, SCLC n = 12): 1 (8.3) n (%) | Nausea, treatment-related AE, grade ≥3 (phase Ib, SCLC n = 12): 0 n (%) | Number of patients with treatment-related AEs (phase Ib, SCLC n = 12): 11 (91.7) n (%) | Thrombocytopenia, treatment-related AE, any grade (phase Ib, SCLC n = 12): 5 (41.7) n (%) | Thrombocytopenia, treatment-related AE, grade ≥3 (phase Ib, SCLC n = 12): 3 (25.0) n (%) | Vomiting, treatment-related AE, any grade (phase Ib, SCLC n = 12): 2 (16.7) n (%) | Vomiting, treatment-related AE, grade ≥3 (phase Ib, SCLC n = 12): 0 n (%) | Weight decrease, treatment-related AE, any grade (phase Ib, SCLC n = 12): 1 (8.3) n (%) | Weight decrease, treatment-related AE, grade ≥3 (phase Ib, SCLC n = 12): 0 n (%) | anemia, grade ≥3 treatment-related AE (phase Ib, all 79 patients): 15.2% | anemia, treatment-related AE (phase Ib, all 79 patients): 22.8% | decreased appetite, treatment-related AE (phase Ib, all 79 patients): 15.2% | decreased platelet count, grade ≥3 treatment-related AE (phase Ib, all 79 patients): 11.4% | decreased platelet count, treatment-related AE (phase Ib, all 79 patients): 25.3% | diarrhea, treatment-related AE (phase Ib, all 79 patients): 29.1% | dysgeusia, treatment-related AE (phase Ib, all 79 patients): 19.0% | fatigue, grade ≥3 treatment-related AE (phase Ib, all 79 patients): 6.3% | fatigue, treatment-related AE (phase Ib, all 79 patients): 27.8% | nausea, treatment-related AE (phase Ib, all 79 patients): 12.7% | thrombocytopenia, grade ≥3 treatment-related AE (phase Ib, all 79 patients): 20.3% | thrombocytopenia, treatment-related AE (phase Ib, all 79 patients): 31.6% | vomiting, treatment-related AE (phase Ib, all 79 patients): 12.7% | ALT increase, treatment-related AE, any grade (phase Ib, mCRPC n = 11): 0 n (%) | ALT increase, treatment-related AE, grade ≥3 (phase Ib, mCRPC n = 11): 0 n (%) | Anemia, treatment-related AE, any grade (phase Ib, mCRPC n = 11): 4 (36.4) n (%) | Anemia, treatment-related AE, grade ≥3 (phase Ib, mCRPC n = 11): 4 (36.4) n (%) | Decreased appetite, treatment-related AE, any grade (phase Ib, mCRPC n = 11): 4 (36.4) n (%) | Decreased appetite, treatment-related AE, grade ≥3 (phase Ib, mCRPC n = 11): 1 (9.1) n (%) | Decreased platelet count, treatment-related AE, any grade (phase Ib, mCRPC n = 11): 3 (27.3) n (%) | Decreased platelet count, treatment-related AE, grade ≥3 (phase Ib, mCRPC n = 11): 1 (9.1) n (%) | Diarrhea, treatment-related AE, any grade (phase Ib, mCRPC n = 11): 6 (54.5) n (%) | Diarrhea, treatment-related AE, grade ≥3 (phase Ib, mCRPC n = 11): 0 n (%) | Dysgeusia, treatment-related AE, any grade (phase Ib, mCRPC n = 11): 4 (36.4) n (%) | Dysgeusia, treatment-related AE, grade ≥3 (phase Ib, mCRPC n = 11): 0 n (%) | Epistaxis, treatment-related AE, any grade (phase Ib, mCRPC n = 11): 2 (18.2) n (%) | Epistaxis, treatment-related AE, grade ≥3 (phase Ib, mCRPC n = 11): 0 n (%) | Fatigue, treatment-related AE, any grade (phase Ib, mCRPC n = 11): 4 (36.4) n (%) | Fatigue, treatment-related AE, grade ≥3 (phase Ib, mCRPC n = 11): 0 n (%) | Nausea, treatment-related AE, any grade (phase Ib, mCRPC n = 11): 4 (36.4) n (%) | Nausea, treatment-related AE, grade ≥3 (phase Ib, mCRPC n = 11): 1 (9.1) n (%) | Number of patients with treatment-related AEs (phase Ib, mCRPC n = 11): 11 (100.0) n (%) | Thrombocytopenia, treatment-related AE, any grade (phase Ib, mCRPC n = 11): 5 (45.5) n (%) | Thrombocytopenia, treatment-related AE, grade ≥3 (phase Ib, mCRPC n = 11): 4 (36.4) n (%) | Vomiting, treatment-related AE, any grade (phase Ib, mCRPC n = 11): 5 (45.5) n (%) | Vomiting, treatment-related AE, grade ≥3 (phase Ib, mCRPC n = 11): 0 n (%) | Weight decrease, treatment-related AE, any grade (phase Ib, mCRPC n = 11): 2 (18.2) n (%) | Weight decrease, treatment-related AE, grade ≥3 (phase Ib, mCRPC n = 11): 0 n (%) | DLT grade 3 decreased appetite (phase Ib, on treatment): 2.5% | DLT grade 3 fatigue (phase Ib, on treatment): 3.8% | DLT grade 3 increased troponin T (phase Ib, on treatment): 2.5% | DLT grade 4 decreased platelet count (phase Ib, on treatment): 5.1% | DLT grade 4 thrombocytopenia (phase Ib, on treatment): 10.1% | total patients with DLTs (phase Ib, schedule C 6.0/3.0 mg, on-treatment period): Phase Ib expansion: total patients with DLTs on BI 894999 (schedule C; 6.0/3.0 mg), n = 3 | AEs leading to death, each (phase Ib, COVID-19, pneumonia, sepsis, delirium, seizure, dyspnea, pulmonary hemorrhage, acute kidney injury): 1.3% | other AEs leading to dose discontinuation, each (phase Ib, tumor hemorrhage, seizure, dyspnea, laryngeal inflammation, nausea, stomatitis, bladder dilation, urinary retention, increased ALT, increased AST, decreased platelet count, increased alkaline phosphatase): 1.3% | AEs leading to death (solid tumors phase Ib n = 79): 7 (8.9) n (%) | AEs leading to discontinuation of trial drug (solid tumors phase Ib n = 79): 11 (13.9) n (%) | AEs leading to dose reduction (solid tumors phase Ib n = 79): 13 (16.5) n (%) | Any AE (solid tumors phase Ib n = 79): 79 (100) n (%) | DLT in on-treatment period (solid tumors phase Ib n = 79): 17 (21.5) n (%) | Treatment-related AEs (solid tumors phase Ib n = 79): 66 (83.5) n (%) | Treatment-related serious AEs (solid tumors phase Ib n = 79): 17 (21.5) n (%)

Source: article PMC12005229, “Final results from the phase Ia/Ib study of the novel bromodomain and extra-terminal domain inhibitor, BI 894999, in patients with advanced solid tumors or diffuse large B-cell lymphoma” (ESMO Open, 2025)
